Results reported in the supplement of paper PMC11061612.

Assays:
Experiment in all cases: combination Emax (second highest fraction inhibited in the dose matrix, 72 h); higher = more inhibition; extreme values may be limits of the assay
[1] = test system: 23132-87 (Gastric Carcinoma)
Method in brief: (§1)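 Cell lines in DMEM/F12 or RPMI with 10% FBS were plated in 1536-well plates, held 24 hours at 37°C, 5% CO2, then given two-drug dose matrices for 72 hours (DMSO typically 0.2%). Viability was read by CellTiter-Glo 2.0 luminescence and scaled as inhibition from 0 (vehicle wells) to 1 (blank wells). Combination Emax is the second-highest inhibition in the matrix; Bliss excess is observed combination effect minus expected EA + EB − EA·EB, EA and EB being single-agent effects.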

A2058 (Melanoma) = test system: A2058 (Melanoma)
Method in brief: as §1

[2] = test system: CAL-120 (Breast Carcinoma)
Method in brief: as §1

[3] = test system: CAL-62 (Thyroid Gland Carcinoma)
Method in brief: as §1

[4] = test system: GP5d (Colorectal Carcinoma)
Method in brief: as §1

[5] = test system: HCT-15 (Colorectal Carcinoma)
Method in brief: as §1

[6] = test system: HSC-39 (Gastric Carcinoma)
Method in brief: as §1

[7] = test system: KE-37 (T-Lymphoblastic Leukemia)
Method in brief: as §1

[8] = test system: LB996-RCC (Kidney Carcinoma)
Method in brief: as §1

[9] = test system: LK-2 (Squamous Cell Lung Carcinoma)
Method in brief: as §1

LN-229 (Glioblastoma) = test system: LN-229 (Glioblastoma)
Method in brief: as §1

[10] = test system: LXF-289 (Lung Adenocarcinoma)
Method in brief: as §1

[11] = test system: RCM-1 (Colorectal Carcinoma)
Method in brief: as §1

[12] = test system: RERF-GC-1B (Gastric Carcinoma)
Method in brief: as §1

[13] = test system: RKN (Other Solid Carcinomas)
Method in brief: as §1

SF268 (Low Grade Glioma) = test system: SF268 (Low Grade Glioma)
Method in brief: as §1

[14] = test system: SK-PN-DW (Other Solid Carcinomas)
Method in brief: as §1

[15] = test system: TE-8 (Esophageal Squamous Cell Carcinoma)
Method in brief: as §1

WM793B (Melanoma) = test system: WM793B (Melanoma)
Method in brief: as §1

Compound	combination Emax [1]	combination Emax (A2058 (Melanoma))	combination Emax [2]	combination Emax [3]	combination Emax [4]	combination Emax [5]	combination Emax [6]	combination Emax [7]	combination Emax [8]	combination Emax [9]	combination Emax (LN-229 (Glioblastoma))	combination Emax [10]	combination Emax [11]	combination Emax [12]	combination Emax [13]	combination Emax (SF268 (Low Grade Glioma))	combination Emax [14]	combination Emax [15]	combination Emax (WM793B (Melanoma))
CN(C)CCCOc1ccc(-c2ccc3ncc4c(c3c2)n(C2CCOCC2)c(=O)n4C)cn1 [AZD0156] + C=CCn1c(=O)c2cnc(Nc3ccc(N4CCN(C)CC4)cc3)nc2n1-c1cccc(C(C)(C)O)n1 [AZD1775] (first compound max 1 µM, partner max 1 µM)	0.645	0.121	0.326	0.709	0.664	0.726	0.946	1	0.801	0.898	0.314	0.264	0.518	0.772	0.263	0.225	0.871	0.783	0.452
CN(C)CCCOc1ccc(-c2ccc3ncc4c(c3c2)n(C2CCOCC2)c(=O)n4C)cn1 [AZD0156] + CCN(CCO)CCCOc1ccc2c(Nc3cc(CC(=O)Nc4cccc(F)c4)[nH]n3)ncnc2c1 [AZD2811] (first compound max 1 µM, 7x7, partner max 1 µM)	0.118	0.0924	0.102	0.182	0.456	0.317	0.935	1	0.362	0.834	0.123	0.507	0.161	0.423	0.132	0.142	0.605	0.196	0.323
CN(C)CCCOc1ccc(-c2ccc3ncc4c(c3c2)n(C2CCOCC2)c(=O)n4C)cn1 [AZD0156] + C[C@@H]1COCCN1C2=NC(=NC(=C2)C3(CC3)[S@](=N)(=O)C)C4=C5C=CNC5=NC=C4 [AZD6738] (first compound max 1 µM, 7x7, partner max 10 µM)	0.873	0.225	0.437	0.755	0.883	0.915	1	1	0.581	0.501	0.54	0.573	0.864	0.491	0.206	0.497	0.928	0.817	0.891
C=CCn1c(=O)c2cnc(Nc3ccc(N4CCN(C)CC4)cc3)nc2n1-c1cccc(C(C)(C)O)n1 [AZD1775] + C[C@@H]1COCCN1C2=NC(=NC(=C2)C3(CC3)[S@](=N)(=O)C)C4=C5C=CNC5=NC=C4 [AZD6738] (first compound max 1 µM, partner max 10 µM)	0.918	0.413	0.583	0.928	0.927	0.933	1	1	0.84	0.882	0.59	0.771	0.852	0.851	0.35	0.526	0.955	0.932	0.875
C=CCn1c(=O)c2cnc(Nc3ccc(N4CCN(C)CC4)cc3)nc2n1-c1cccc(C(C)(C)O)n1 [AZD1775] + O=C(c1cc(Cc2n[nH]c(=O)c3ccccc23)ccc1F)N1CCN(C(=O)C2CC2)CC1 [Olaparib] (first compound max 1 µM, partner max 10 µM)	0.605	0.284	0.396	0.796	0.713	0.443	0.988	1	0.845	0.914	0.258	0.355	0.518	0.693	0.355	0.251	0.913	0.865	0.501
CCN(CCO)CCCOc1ccc2c(Nc3cc(CC(=O)Nc4cccc(F)c4)[nH]n3)ncnc2c1 [AZD2811] + C=CCn1c(=O)c2cnc(Nc3ccc(N4CCN(C)CC4)cc3)nc2n1-c1cccc(C(C)(C)O)n1 [AZD1775] (first compound max 1 µM, partner max 1 µM)	0.656	0.15	0.368	0.787	0.735	0.743	0.985	1	0.842	0.887	0.218	0.573	0.461	0.816	0.281	0.245	0.899	0.781	0.497
CCN(CCO)CCCOc1ccc2c(Nc3cc(CC(=O)Nc4cccc(F)c4)[nH]n3)ncnc2c1 [AZD2811] + C[C@@H]1COCCN1C2=NC(=NC(=C2)C3(CC3)[S@](=N)(=O)C)C4=C5C=CNC5=NC=C4 [AZD6738] (first compound max 1 µM, 7x7, partner max 10 µM)	0.811	0.246	0.396	0.741	0.845	0.805	1	1	0.602	0.698	0.562	0.516	0.828	0.439	0.206	0.381	0.947	0.781	0.769
CCN(CCO)CCCOc1ccc2c(Nc3cc(CC(=O)Nc4cccc(F)c4)[nH]n3)ncnc2c1 [AZD2811] + O=C(c1cc(Cc2n[nH]c(=O)c3ccccc23)ccc1F)N1CCN(C(=O)C2CC2)CC1 [Olaparib] (first compound max 1 µM, 7x7, partner max 10 µM)	0.246	0.218	0.293	0.277	0.516	0.12	0.985	0.998	0.315	0.765	0.167	0.555	0.247	0.316	0.228	0.178	0.689	0.335	0.359
C[C@@H]1COCCN1c1cc(C2([S@](C)(=N)=O)CC2)nc(-c2ccnc3[nH]ccc23)n1 [AZD6738] + O=C(c1cc(Cc2n[nH]c(=O)c3ccccc23)ccc1F)N1CCN(C(=O)C2CC2)CC1 [Olaparib] (first compound max 10 µM, 7x7, partner max 10 µM)	0.768	0.205	0.386	0.899	0.823	0.832	1	1	0.675	0.485	0.539	0.516	0.623	0.442	0.228	0.407	0.947	0.757	0.822
Cc1cc2ncnn2cc1Nc1ncc2c(n1)n(C1CCOCC1)c(=O)n2C [AZD7648] + C=CCn1c(=O)c2cnc(Nc3ccc(N4CCN(C)CC4)cc3)nc2n1-c1cccc(C(C)(C)O)n1 [AZD1775] (first compound max 10 µM, partner max 1 µM)	0.659	0.24	0.498	0.69	0.704	0.736	0.936	1	0.762	0.894	0.35	0.476	0.596	0.788	0.248	0.344	0.875	0.814	0.584
Cc1cc2ncnn2cc1Nc1ncc2c(n1)n(C1CCOCC1)c(=O)n2C [AZD7648] + CCN(CCO)CCCOc1ccc2c(Nc3cc(CC(=O)Nc4cccc(F)c4)[nH]n3)ncnc2c1 [AZD2811] (first compound max 10 µM, 7x7, partner max 1 µM)	0	0.247	0.334	0.368	0.478	0.455	0.939	1	0.363	0.742	0.199	0.395	0.316	0.281	0.211	0.19	0.696	0.354	0.411
Cc1cc2ncnn2cc1Nc1ncc2c(n1)n(C1CCOCC1)c(=O)n2C [AZD7648] + CN(C)CCCOc1ccc(-c2ccc3ncc4c(c3c2)n(C2CCOCC2)c(=O)n4C)cn1 [AZD0156] (first compound max 10 µM, 7x7, partner max 1 µM)	0.0669	0.182	0.414	0.321	0.293	0.267	0.215	0.659	0.339	0.269	0.146	0.201	0.201	0.29	0.194	0.187	0.303	0.325	0.361
Cc1cc2ncnn2cc1Nc1ncc2c(n1)n(C1CCOCC1)c(=O)n2C [AZD7648] + C[C@@H]1COCCN1C2=NC(=NC(=C2)C3(CC3)[S@](=N)(=O)C)C4=C5C=CNC5=NC=C4 [AZD6738] (first compound max 10 µM, 7x7, partner max 10 µM)	0.841	0.271	0.325	0.724	0.822	0.835	1	1	0.668	0.39	0.525	0.369	0.855	0.457	0.225	0.303	0.943	0.75	0.818
CCc1c2c(nc3ccc(O)cc13)-c1cc3c(c(=O)n1C2)COC(=O)[C@]3(O)CC [SN-38] + O=C(c1cc(Cc2n[nH]c(=O)c3ccccc23)ccc1F)N1CCN(C(=O)C2CC2)CC1 [Olaparib] (first compound max 0.3 µM, 7x7, partner max 10 µM)	0.814	0.22	0.7	0.911	0.704	0.852	0.887	1	0.854	0.456	–	–	0.809	–	0.651	–	0.909	0.575	–
